Test results: patent US20160199434A1, “COMPOSITIONS AND METHODS FOR MODULATING DNA METHYLATION” (OHIO STATE INNOVATION FOUNDATION, priority 2013, published 2016)
“Also recorded” adds a separate entry of the source.

Legend:
c-Myc promoter = experiment: Percent DNA methylation of c-Myc promoter in human cervical tumors in animals; type: in vivo; settings: animal models of human cervical tumors, 17.5 mg/kg (FIG. 7A)
Protocol: Animal models of human cervical tumors were untreated, treated with DMSO, treated with 5-AZA or treated with AKB-6899 (17.5 mg/kg).

[1] = system: 23 different gene promoters; experiment: Percent methylation of 23 gene promoters in H1703 squamous cell carcinoma; type: cell-based, human; settings: H1703, 10 μM and 50 μM, compared to DMSO
Protocol: FIGS. 11A-11D show the percent methylation for 23 different gene promoters in two types of human lung cancer cells—FIGS. 11A and 11B are directed at H1703 squamous cell carcinoma and FIG. 11C and FIG. 11D are directed at A549 adenocarcinoma. DMSO was used as a vehicle and was used as a control. […] The Dec/PBA condition represents a combination of 5 μM Decitabine (5-aza-2′deoxycytidine (5-AZA), which is a demethylating agent) and 2 mM […] (PBA, HDAC inhibitor). In all promoters tested, and in both types of lung cancer, AKB-6899 demethylated the gene promoters such that the level of % DNA methylation following AKB-6899 treatment was below the level of % DNA methylation of the DMSO-treated control cells (DMSO).

DNMT-3a [2] = experiment: DNMT-3a mRNA expression by RT-PCR in MDA-MB-231 tumor cells; type: cell-based, human; settings: 25 μM, 24 hours, compared to DMSO (FIG. 1B)
Protocol: (§1) FIGS. 1A-1E show DNA methyltransferase mRNA expression in vitro and in vivo. […] PyMT tumor cells were left untreated, were treated with DMSO, or were treated with AKB-6899 (10, 25, or 50 μM) for 24 hours. The cells were subjected to Trizol extraction to recover total RNA. cDNA was synthesized for RT-PCR of DNMT-1 and DNMT-3a mRNA expression. […] Human MDA-MB-231 tumor cells were left untreated, were treated with DMSO, or were treated with AKB-6899 (25 μM) for 24 hours. Total RNA was isolated for RT-PCR. FIG. 1C (DNMT-1), FIG. 1D (DNMT-3a), and FIG. 1E (DNMT-3b) compare the effect of AKB-6899 with the effect of 5-aza-2′deoxycytidine (5-AZA) as assessed by RT-PCR in human cervical tumors implanted in mice that were either untreated (UTX), treated with DMSO, treated with 5-AZA, or treated with AKB-6899 (17.5 mg/kg).
To determine whether the decrease in DNMT expression and the increase in DSP expression were relevant in human cancer, the level of desmoplakin expression in MDA-MB-231 human triple negative breast cancer cells was determined. […] (FIG. 3B).

DNMT-3a [3] = experiment: DNMT-3a mRNA expression by RT-PCR in PyMT tumor cells; type: cell-based, mouse; settings: for DNMT-3a mRNA expression: PyMT tumor cells, 24 hours, compared to DMSO (FIG. 1A)
Protocol: as §1
Because DSP is regulated by ER/PR expression, and because late-stage PyMT tumors lose ER/PR-positivity and heavily metastasize to the lymph nodes and lungs (Lin et al., 2003), the effects of AKB-6899 on more global events that regulate gene expression was evaluated. PyMT tumor cells in culture were treated with DMSO or AKB-6899. Methylation-specific PCR for CpG islands in the desmoplakin promoter were performed. […] Trypan Blue confirmed no cell death in AKB-6899 treated cells when compared to control cells. The experiment was repeated and RNA was isolated from the cells. RT-PCR was performed and the regulation of DNA methyltransferases (DNMTs) was evaluated. […] (FIG. 1A). The decrease in mRNA levels of DNMT-1 and DNMT-3a increased the mRNA level of DSP (FIG. 4A) and increased desmoplakin protein expression (FIG. 5A).

desmoplakin protein = experiment: Desmoplakin protein expression in cultured PyMT tumor cells; type: cell-based, mouse; settings: 10 μM, 24 hours (FIG. 5A)
Protocol: FIGS. 5A-5B show desmoplakin protein expression following AKB-6899 treatment. In FIG. 5A, cultured PyMT tumor cells were treated for 24 hours with DMSO or AKB-6899 (10 μM). AKB-6899 increased desmoplakin protein expression.
The gene expression signatures from the tumors of PyMT breast tumor-bearing mice that were treated with either vehicle or AKB-6899 were evaluated. […] Methylation-specific PCR on the desmoplakin promoter was performed. The level of hypomethylation was near complete.

O=C(O)CNC(=O)c1ncc(-c2cccc(F)c2)cc1O [AKB-6899, {[5-(3-Fluorophenyl)-3-hydroxypyridine-2-carbonyl]amino}acetic acid]
DNA methylation of c-Myc promoter (c-Myc promoter): completely demethylated
percent DNA methylation of 23 gene promoters [1]: decreased the percent of DNA methylation in a dose response fashion
DNMT-3a mRNA expression (DNMT-3a [2]): significantly decreased; also recorded: downregulated
DNMT-3a mRNA level (DNMT-3a [3]; PyMT tumor cells in culture, concentration not given): significant decreases; also recorded: downregulated
DNMT-3a mRNA expression (DNMT-3a [3]; 25 μM): significantly inhibited
DNMT-3a mRNA expression (DNMT-3a [3]; 50 μM): significantly inhibited
desmoplakin protein expression (desmoplakin protein): upregulation; also recorded: increased
